The results in this text go back to patent US10508086B2 (CANCER RESEARCH TECHNOLOGY LIMITED, priority 2014, dated 2019).

Structures are written as SMILES.

The test concerns the target Human Full Length PARG (Homo sapiens (Human), UniProt Q86W56). Nature of the test: PARG in vitro enzyme assay (TR-FRET). The class given is biochemical. As to conditions: read-out: PARG_EC50_ENZYME. Here is the method:
PARG In vitro assays were conducted in a total volume of 15 ul in a standard 384 well format. 5 ul of Human Full Length PARG (Produced internally by Astra Zeneca), used at a final reaction concentration of […], was added to 5 ul of Ribosylated PARP substrate (also produced internally by Astra Zeneca) at final reaction concentration of 4.5 nM in assay buffer (50 mM Tris pH7.4, 0.1 mg/ml BSA, 3 mM EDTA, 0.4 mM EGTA, 1 mM DTT, 0.01% Tween 20, 50 mM KCl). The reaction was incubated at room temperature for 10 minutes and then 5 ul detection reagent was added. Detection Reagent consists of 42 nM MAb Anti-6HIS XL665 (CisBio: 61 HISXLB) and 2.25 nM Streptavidin Europium Cryptate (CisBio: 610SAKLB), both at 3× working stock concentrations (final concentrations of 14 nM and 0.75 nM respectively), in a detection buffer of 50 mM Tris pH7.4, BSA at 0.1 mg/ml and KF at 100 mM. Following incubation at room temperature for 60 minutes in the dark, TR-FRET signal was measured at Ex 340 and Em 665 and Em 620. A ratio was calculated as Em665/EM620×104 for each well and used to calculate percent inhibition for test compounds.

Human Full Length PARG, sequence (Q86W56 whole entry): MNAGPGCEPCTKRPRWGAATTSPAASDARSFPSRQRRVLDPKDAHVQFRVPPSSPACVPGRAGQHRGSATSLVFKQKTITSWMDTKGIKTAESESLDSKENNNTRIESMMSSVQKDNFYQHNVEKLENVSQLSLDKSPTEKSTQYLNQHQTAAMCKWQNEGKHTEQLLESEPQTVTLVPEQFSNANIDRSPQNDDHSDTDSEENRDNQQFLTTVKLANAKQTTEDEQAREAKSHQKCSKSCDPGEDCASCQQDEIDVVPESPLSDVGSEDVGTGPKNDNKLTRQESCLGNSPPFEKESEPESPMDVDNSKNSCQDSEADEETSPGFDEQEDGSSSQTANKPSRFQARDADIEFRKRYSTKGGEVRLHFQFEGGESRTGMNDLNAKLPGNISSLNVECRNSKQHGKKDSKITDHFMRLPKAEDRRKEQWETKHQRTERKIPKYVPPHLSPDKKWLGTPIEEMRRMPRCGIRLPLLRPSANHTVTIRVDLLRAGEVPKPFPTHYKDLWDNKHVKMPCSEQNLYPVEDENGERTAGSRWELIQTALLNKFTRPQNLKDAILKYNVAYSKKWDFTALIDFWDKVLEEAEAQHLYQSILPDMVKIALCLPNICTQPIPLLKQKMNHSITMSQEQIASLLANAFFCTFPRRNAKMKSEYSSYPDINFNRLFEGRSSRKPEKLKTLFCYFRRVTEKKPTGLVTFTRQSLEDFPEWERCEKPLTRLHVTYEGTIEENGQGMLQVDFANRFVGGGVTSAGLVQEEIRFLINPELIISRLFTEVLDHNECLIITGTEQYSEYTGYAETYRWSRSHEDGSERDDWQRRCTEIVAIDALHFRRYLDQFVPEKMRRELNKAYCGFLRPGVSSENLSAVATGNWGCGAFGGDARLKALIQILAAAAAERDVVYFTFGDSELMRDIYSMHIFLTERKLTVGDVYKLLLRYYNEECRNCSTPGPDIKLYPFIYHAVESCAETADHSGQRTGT

As to `Cc1nnc(-n2cc(Cc3ccc(F)cc3)c3ccc(S(=O)(=O)NC4(C)CC4)cc32)s1` [Example 127, 3-[(4-Fluorophenyl)methyl]-N-(1-methylcyclopropyl)-1-(5-methyl-1,3,4-thiadiazol-2-yl)indole-6-sulfonamide], the EC50 was found to be 6.05 µM.
In the case of `Cn1c(=O)n(Cc2c(Cl)cccc2Cl)c2ccc(S(=O)(=O)NC3(C)CC3)cc21` [Example 1], the EC50 was 9.41 µM.
The same measure for `CC1(NS(=O)(=O)c2ccc3c(c2)[nH]c(=O)n3Cc2ccc(F)cc2)CC1` [Example 72, 1-[(4-Fluorophenyl)methyl]-N-(1-methylcyclopropyl)-2-oxo-3H-benzimidazole-5-sulfonamide]: 8.3 µM; for `Cc1nnc(-n2c(=O)n(CCN3CCCCC3)c3ccc(S(=O)(=O)NC4(C)CC4)cc32)s1` [Example 149]: 0.735 µM; for `Cc1nnc(-n2c(=O)n(CCN3CCCC3)c3ccc(S(=O)(=O)NC4(C)CC4)cc32)o1` [Example 142]: 3.8 µM.
The same measure for `Cc1ncc(Cn2c(=O)n(C)c3cc(S(=O)(=O)NC4(C)CC4)ccc32)s1` [Example 65]: 9.8 µM.
Take `Cc1nnc(-n2c(=O)n(C)c3c(C(F)(F)F)cc(S(=O)(=O)NC4(C)CC4)cc32)s1` [Example 123, 1-Methyl-N-(1-methylcyclopropyl)-3-(5-methyl-1,3,4-thiadiazol-2-yl)-2-oxo-7-(trifluoromethyl)benzimidazole-5-sulfonamide]: the EC50 was determined as 0.734 µM.
The same measure for `Cc1nc(C)c(Cn2c(=O)n(-c3cscn3)c3cc(S(=O)(=O)NC4(C)CC4)ccc32)s1` [Example 95]: 0.74 µM; for `C=CCn1c(=O)n(C)c2cc(S(=O)(=O)NC3(C)CC3)ccc21` [Example 18]: 7.56 µM; for `Cn1c(=O)n(Cc2c(F)cccc2F)c2ccc(S(=O)(=O)NC3(C)CC3)cc21` [Example 47]: 5.72 µM.
The value for `CCOC(=O)n1c(=O)n(C)c2ccc(S(=O)(=O)NC3(C)CC3)cc21` [Example 66] was 1.35 µM; that for `CC1(NS(=O)(=O)c2ccc3c(c2)n(-c2nccs2)c(=O)n3Cc2ccc(F)cc2)CC1` [Example 76] was 2.71 µM; that for `Cc1nnc(-n2c(=O)n(CCCN(C)C)c3ccc(S(=O)(=O)NC4(C)CC4)cc32)o1` [Example 133] was 1.14 µM.
Take `Cn1c(=O)n(Cc2ccncc2)c2ccc(S(=O)(=O)NC3(C)CC3)cc21` [Example 13]: the EC50 was 7.12 µM.
The value for `Cn1c(=O)n(-c2ccsc2)c2cc(S(=O)(=O)NC3(C)CC3)ccc21` [Example 26] was 6.99 µM; that for `Cn1c(=O)n(-c2ncc(/C=C/C(=O)O)s2)c2cc(S(=O)(=O)NC3(C)CC3)ccc21` [Example 69, (E)-3-[2-[3-methyl-6-[(1-methylcyclopropyl)sulfamoyl]-2-oxo-benzimidazol-1-yl]thiazol-5-yl]prop-2-enoic acid] was 3.21 µM.
As to `CC1(NS(=O)(=O)c2ccc3c(c2)N(C(=O)CN2CCNC2=O)CC3)CC1` [Example 21, N-(1-Methylcyclopropyl)-1-[2-(2-oxoimidazolidin-1-yl)acetyl]indoline-6-sulfonamide], the EC50 stood at 5.23 µM.
In the case of `Cc1nnc(-n2c(=O)n(CCN3CCCCC3)c3ccc(S(=O)(=O)NC4(C)CC4)cc32)o1` [Example 140], the EC50 came to 1.97 µM.
The same measure for `Cc1nnc(-n2c(Cc3cnn(C)c3)nc3ccc(S(=O)(=O)NC4(C)CC4)cc32)s1` [Example 120]: 0.867 µM; for `Cn1c(=O)n(CC2CC2(F)F)c2ccc(S(=O)(=O)NC3(C)CC3)cc21` (stereo not drawn) [Example 6]: 8.32 µM; for `Cc1nnc(-n2c(=O)n(CCN(C)C)c3ccc(S(=O)(=O)NC4(C)CC4)cc32)s1` [Example 85]: 0.684 µM.
The value for `Cn1c(=O)n(C(=O)C2CCCCC2)c2cc(S(=O)(=O)NC3(C)CC3)ccc21` [Example 28] was 0.352 µM; that for `CN(C)C(=O)CCc1cnc(-n2c(=O)n(C)c3ccc(S(=O)(=O)NC4(C)CC4)cc32)s1` [Example 71, N, N-Dimethyl-3-[2-[3-methyl-6-[(1-methylcyclopropyl)sulfamoyl]-2-oxo-benzimidazol-1-yl]thiazol-5-yl]propanamide] was 7.05 µM; that for `Cn1c(=O)n(Cc2cccc(C(N)=O)c2)c2ccc(S(=O)(=O)NC3(C)CC3)cc21` [Example 61] was 6.06 µM.
The same measure for `Cn1c(=O)n(Cc2ccc(C#N)c(F)c2)c2ccc(S(=O)(=O)NC3(C)CC3)cc21` [Example 58]: 4.65 µM; for `Cn1c(=O)n(Cc2ccc(C#N)cc2)c2ccc(S(=O)(=O)NC3(C)CC3)cc21` [Example 45]: 3.2 µM; for `Cn1c(=O)n(Cc2ccccc2C(F)(F)F)c2ccc(S(=O)(=O)NC3(C)CC3)cc21` [Example 46]: 9.75 µM.
With `CNC(=O)CCc1cnc(-n2c(=O)n(C)c3ccc(S(=O)(=O)NC4(C)CC4)cc32)s1` [Example 74, N-methyl-3-[2-[3-methyl-6-[(1-methylcyclopropyl)sulfamoyl]-2-oxo-benzimidazol-1-yl]thiazol-5-yl]propanamide], the EC50 is 9.73 µM.
The same measure for `Cc1cccc(C(=O)n2c(=O)n(C)c3ccc(S(=O)(=O)NC4(C)CC4)cc32)c1` [Example 30]: 9.57 µM; for `CNC(=O)n1c(=O)n(C)c2ccc(S(=O)(=O)NC3(C)CC3)cc21` [Example 55]: 7.05 µM.
In the case of `Cn1c(=O)n(CC2CCC2)c2ccc(S(=O)(=O)NC3(C)CC3)cc21` [Example 11], the EC50 worked out at 4.67 µM.
The same measure for `CC1(NS(=O)(=O)c2ccc3c(c2)n(-c2ccccc2)c(=O)n3CC2CC2)CC1` [Example 4]: 2.91 µM; for `Cc1nnc(-n2c(=O)n(CCN(C)C)c3ccc(S(=O)(=O)NC4(C)CC4)cc32)o1` [Example 137]: 2.28 µM; for `COCCCn1c(=O)n(-c2nnc(C)o2)c2cc(S(=O)(=O)NC3(C)CC3)ccc21` [Example 150]: 0.904 µM.
Take `Cn1c(=O)n(CC2CC2)c2ccc(S(=O)(=O)NC3(C)CC3)cc21` [Example 2]: the EC50 was found to be 5 µM.
`Cn1c(=O)n(Cc2ccc(C(N)=O)cc2)c2ccc(S(=O)(=O)NC3(C)CC3)cc21` [Example 59]: the EC50 worked out at 2.66 µM.
The same measure for `Cn1c(=O)n(Cc2cccc(C#N)c2)c2ccc(S(=O)(=O)NC3(C)CC3)cc21` [Example 44]: 3.35 µM.
For `CC(C)Cn1c(=O)n(C)c2cc(S(=O)(=O)NC3(C)CC3)ccc21` [Example 7], the EC50 turned out to be 9.79 µM.
The same measure for `CCOC(=O)n1cc(Cc2sc(C)nc2C)c2ccc(S(=O)(=O)NC3(C)CC3)cc21` [Example 132, Ethyl 3-[(2,4-dimethylthiazol-5-yl)methyl]-6-[(1-methylcyclopropyl)sulfamoyl]indole-1-carboxylate]: 7.42 µM; for `Cc1nnc(-n2c(=O)n(CCN3CCOCC3)c3ccc(S(=O)(=O)NC4(C)CC4)cc32)o1` [Example 141]: 1.12 µM; for `Cn1c(=O)n(-c2ccc(/C=C/C(=O)O)o2)c2cc(S(=O)(=O)NC3(C)CC3)ccc21` [Example 67, (E)-3-[5-[3-Methyl-6-[(1-methylcyclopropyl)sulfamoyl]-2-oxo-benzimidazol-1-yl]-2-furyl]prop-2-enoic acid]: 4.45 µM.
The value for `Cn1c(=O)n(-c2nncs2)c2cc(S(=O)(=O)NC3(C)CC3)ccc21` [Example 77] was 5 µM; that for `CCNC(=O)n1c(=O)n(C)c2ccc(S(=O)(=O)NC3(C)CC3)cc21` [Example 32] was 6.86 µM.
In the case of `Cc1cccc(Cn2c(=O)n(C)c3cc(S(=O)(=O)NC4(C)CC4)ccc32)c1` [Example 33], the EC50 was found to be 6.31 µM.
The same measure for `Cn1c(=O)n(C)c2cc(S(=O)(=O)NC3(C)CC3)c(F)cc21` [Example 56, 6-Fluoro-1,3-dimethyl-N-(1-methylcyclopropyl)-2-oxo-benzimidazole-5-sulfonamide]: 8.3 µM; for `Cn1c(=O)n(-c2ccco2)c2cc(S(=O)(=O)NC3(C)CC3)ccc21` [Example 52]: 5.16 µM.
The same measure for `Cn1c(=O)n(-c2nnc(C(F)(F)F)s2)c2cc(S(=O)(=O)NC3(C)CC3)ccc21` [Example 78]: 0.717 µM; for `Cc1nnc(-n2cc(CC3CC3)c3ccc(S(=O)(=O)NC4(C)CC4)cc32)s1` [Example 128, 3-(Cyclopropylmethyl)-N-(1-methylcyclopropyl)-1-(5-methyl-1,3,4-thiadiazol-2-yl)indole-6-sulfonamide]: 2.11 µM; for `Cc1nnc(-n2c(=O)n(CC3CCCN(C)C3)c3ccc(S(=O)(=O)NC4(C)CC4)cc32)s1` (stereo not drawn) [Example 136]: 0.567 µM.
The same measure for `Cn1c(=O)n(Cc2ccc(Cl)cc2)c2ccc(S(=O)(=O)NC3(C)CC3)cc21` [Example 39]: 3.74 µM.
For the compound `Cc1csc(-n2c(=O)n(Cc3sc(C)nc3C)c3ccc(S(=O)(=O)NC4(C)CC4)cc32)n1` [Example 106], the EC50 turned out to be 1.52 µM.
`Cc1nc(C)c(Cn2c(=O)n(-c3nncs3)c3cc(S(=O)(=O)NC4(C)CC4)ccc32)s1` [Example 110]: the EC50 was found to be 0.234 µM.
For the compound `Cn1c(=O)n(Cc2cc(F)cc(F)c2)c2ccc(S(=O)(=O)NC3(C)CC3)cc21` [Example 51], the EC50 turned out to be 5.26 µM.
With `Cc1nnc(-n2c(=O)n(CC3CCCCN3C)c3ccc(S(=O)(=O)NC4(C)CC4)cc32)o1` (stereo not drawn) [Example 138], the EC50 worked out at 1.02 µM.
